# Reference: patent US7138411B2, “Substituted benzopyran derivatives for the treatment of inflammation” (G.D. Searle & Co., priority 1997, dated 2006)
# pIC50: −log10 of the molar value.
# How the values were obtained:
# COX-2 [1] = biological target: T1, COX-2 (UniProt P35354); assay: Assay for COX-2 activity (PGE2 ELISA); settings: read-out: COX-2 IC50; 10–20 minutes pre-incubation, reaction stopped after ten minutes, pH 8.0
# T1 sequence (P35354 1-604): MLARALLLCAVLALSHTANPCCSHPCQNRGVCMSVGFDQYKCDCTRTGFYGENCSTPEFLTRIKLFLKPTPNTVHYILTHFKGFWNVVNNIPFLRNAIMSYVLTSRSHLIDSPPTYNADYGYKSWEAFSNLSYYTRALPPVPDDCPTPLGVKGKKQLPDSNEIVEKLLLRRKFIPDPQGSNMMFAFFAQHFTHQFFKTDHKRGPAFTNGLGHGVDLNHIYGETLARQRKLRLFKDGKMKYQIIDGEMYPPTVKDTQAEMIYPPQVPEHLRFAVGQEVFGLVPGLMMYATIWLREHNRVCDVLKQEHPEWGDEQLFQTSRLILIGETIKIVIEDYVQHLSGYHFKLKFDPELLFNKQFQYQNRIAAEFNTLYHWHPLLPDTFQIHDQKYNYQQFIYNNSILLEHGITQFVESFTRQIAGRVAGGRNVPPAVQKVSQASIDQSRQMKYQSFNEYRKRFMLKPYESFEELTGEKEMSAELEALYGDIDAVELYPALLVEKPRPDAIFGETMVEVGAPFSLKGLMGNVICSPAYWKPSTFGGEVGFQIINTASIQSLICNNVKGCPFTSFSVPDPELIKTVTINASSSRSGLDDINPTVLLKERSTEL
# COX-1 = COX-1 (UniProt P23219); assay: Assay for COX-1 activity (PGE2 ELISA); settings: read-out: COX-1 IC50; 10–20 minutes pre-incubation, reaction stopped after ten minutes, pH 8.0
# Protocol: Recombinant baculoviruses were isolated by transfecting 4 μg of baculovirus transfer vector DNA into SF9 insect cells (2×10^8) along with 200 ng of linearized baculovirus plasmid DNA by the calcium phosphate method. […] Recombinant viruses were purified by three rounds of plaque purification and high titer (10^7–10^8 pfu/mL) stocks of virus were prepared. For large scale production, SF9 insect cells were infected in 10 liter fermentors (0.5×10^6/mL) with the recombinant baculovirus stock such that the multiplicity of infection was 0.1. […] The homogenate was centrifuged at 10,000×G for 30 minutes, and the resultant supernatant was stored at −80° C. before being assayed for COX activity.
# Assay for COX-1 and COX-2 Activity
# COX activity was assayed as PGE2 formed/μg protein/time using an ELISA to detect the prostaglandin released. CHAPS-solubilized insect cell membranes containing the appropriate COX enzyme were incubated in a potassium phosphate buffer (50 mM, pH 8.0) containing epinephrine, phenol, and heme with the addition of arachidonic acid (10 μM). […] The PGE2 formed was measured by standard ELISA technology (Cayman Chemical).
# COX-2 [2] = biological target: T1, COX-2; assay: Fast assay for COX-2 activity (PGE2 ELISA); assay type: biochemical, human or murine; settings: fast assay: 10 min pre-incubation at 25° C., reaction stopped after two minutes, pH 7.5
SMILES,pIC50 (COX-2 [1]),melting point,pIC50 (COX-1),pIC50 (COX-2 [2])
"O=C(O)C1=Cc2cc(Br)cc(Cl)c2OC1C(F)(F)F (stereo not drawn) [Example 42, 6-Bromo-8-chloro-2-trifluoromethyl-2H-1-benzopyran-3-carboxylic acid]",> 7.00,220.7 to 221.7 °C,4.96,> 7.00
"O=C(O)C1=Cc2cc(Oc3ccccc3)ccc2OC1C(F)(F)F (stereo not drawn) [Example 99, 6-Phenoxy-2-(trifluoromethyl)-2H-1-benzopyran-3-carboxylic acid]",> 7.00,184.9 to 186.4 °C,4.64,6.70
"O=C(O)C1=Cc2cc(Oc3ccc(C(F)(F)F)cc3)ccc2OC1C(F)(F)F (stereo not drawn) [Example 101, 2-(Trifluoromethyl)-6-[4-(trifluoromethyl)phenoxy)-2H-1-benzopyran-3-carboxylic acid]",> 7.00,153.5 to 154.4 °C,4.80,> 7.00
"O=C(O)C1=Cc2cc(Oc3ccc(Cl)cc3)ccc2OC1C(F)(F)F (stereo not drawn) [Example 104, 6-(4-Chlorophenoxy)-2-(trifluoromethyl)-2H-1-benzopyran-3-carboxylic acid]",> 7.00,140.5 to 142.5 °C,5.09,> 7.00
"CC(C)(CO)c1cc2c(cc1Cl)C=C(C(=O)O)C(C(F)(F)F)O2 (stereo not drawn) [Example 178, 6-Chloro-7-(2-hydroxy-1,1-dimethylethyl)-2-(trifluoromethyl)-2H-1-benzopyran-3-carboxylic acid]",4.83,203.8 to 205.4 °C,< 4.00,5.08
"C=Cc1cc2c(cc1Cl)C=C(C(=O)O)C(C(F)(F)F)O2 (stereo not drawn) [Example 182, 6-Chloro-7-ethenyl-2-(trifluoromethyl)-2H-1-benzopyran-3-carboxylic acid]",< 4.00,> 200 °C (dec.),< 4.00,> 7.00
"Cc1cc(Br)c2c(c1)C=C(C(=O)O)C(C(F)(F)F)O2 (stereo not drawn) [Example 44, 8-Bromo-6-methyl-2-trifluoromethyl-2H-1-benzopyran-3-carboxylic acid]",4.68,237 to 238 °C,< 4.00,6.52
"O=C(O)C1=Cc2cc(Cl)c([S+]([O-])c3ccc(Cl)cc3)cc2OC1C(F)(F)F (stereo not drawn) [Example 193, 6-Chloro-7-[(4-chlorophenyl)sulfinyl]-2-(trifluoromethyl)-2H-1-benzopyran-3-carboxylic acid]",< 4.00,213.8 to 217.4 °C,< 4.00,5.92
"CCOC(=O)C1=Cc2cc(N)ccc2OC1C(F)(F)F (stereo not drawn) [Example 35, Ethyl 6-amino-2-trifluoromethyl-2H-1-benzopyran-3-carboxylate]",5.77,111 to 115 °C,4.96,5.66
"O=C(O)C1=Cc2cc(Cl)c(Oc3cccnc3)cc2OC1C(F)(F)F (stereo not drawn) [Example 201, 6-Chloro-7-[3-pyridinyloxy]-2-(trifluoromethyl)-2H-1-benzopyran-3-carboxylic acid]",7.00,237.8 to 238.8 °C,4.20,> 7.00
"O=C(O)C1=Cc2cc(Cl)c(Cl)cc2SC1C(F)(F)F (stereo not drawn) [Example 154, 6,7-Dichloro-2-(trifluoromethyl)-2H-1-benzothiopyran-3-carboxylic acid]",> 7.00,262.5 to 263.5 °C,4.43,6.30
"O=C(O)C1=Cc2cc(-c3ccc(Br)cc3)ccc2OC1C(F)(F)F (stereo not drawn) [Example 138, 6-(4-Bromophenyl)-2-(trifluoromethyl)-2H-1-benzopyran-3-carboxylic acid]",> 7.00,215 to 216 °C,4.95,6.52
"O=C(O)C1=Cc2cc(Cl)cc(-c3cccs3)c2OC1C(F)(F)F (stereo not drawn) [Example 116, 6-Chloro-8-(2-thienyl)-2-(trifluoromethyl)-2H-1-benzopyran-3-carboxylic acid]",> 7.00,257.5 to 258.8 °C,> 7.00,> 7.00
"O=C(O)C1=Cc2c(F)ccc(Br)c2OC1C(F)(F)F (stereo not drawn) [Example 45, 8-Bromo-5-fluoro-2-trifluoromethyl-2H-1-benzopyran-3-carboxylic acid]",4.34,221.7 to 223.3 °C,< 4.00,6.70
"Cc1cccc(C)c1Oc1cc2c(cc1Cl)C=C(C(=O)O)C(C(F)(F)F)O2 (stereo not drawn) [Example 190, 6-Chloro-7-(2,6-dimethylphenoxy)-2-(trifluoromethyl)-2H-1-benzopyran-3-carboxylic acid]",6.30,252.7 to 258.6 °C,4.43,6.30
"O=C(O)C1=Cc2cc(Cl)cc(C#Cc3ccccc3)c2OC1C(F)(F)F (stereo not drawn) [Example 120, 6-Chloro-8-(phenylethynyl)-2-(trifluoromethyl)-2H-1-benzopyran-3-carboxylic acid]",> 7.00,190.1 to 192.1 °C,4.48,> 7.00
"COc1ccc(Sc2cc3c(cc2Cl)C=C(C(=O)O)C(C(F)(F)F)O3)cc1 (stereo not drawn) [Example 191, 6-Chloro-7-[(4-methoxyphenyl)thio]-2-(trifluoromethyl)-2H-1-benzopyran-3-carboxylic acid]",4.37,239.4 to 242.3 °C,< 4.00,> 7.00
"O=C(O)C1=Cc2cc(Cl)cc(-c3ccc(Cl)cc3)c2OC1C(F)(F)F (stereo not drawn) [Example 125, 6-Chloro-8-(4-chlorophenyl)-2-(trifluoromethyl)-2H-1-benzopyran-3-carboxylic acid]",> 7.00,205.5 to 207.3 °C,> 7.00,> 7.00
"O=C(O)C1=Cc2cc(Cl)c(Oc3cccnc3Cl)cc2OC1C(F)(F)F (stereo not drawn) [Example 200, 6-Chloro-7-[(2-chloro-3-pyridinyl)oxy]-2-(trifluoromethyl)-2H-1-benzopyran-3-carboxylic acid]",> 7.00,213.4 to 216.2 °C,4.55,> 7.00
"O=C(O)C1=Cc2cc(Cl)c(Sc3ccccc3)cc2OC1C(F)(F)F (stereo not drawn) [Example 195, 6-Chloro-7-(phenylthio)-2-(trifluoromethyl)-2H-1-benzopyran-3-carboxylic acid]",> 7.00,271.7 to 274.4 °C,5.59,> 7.00
"O=C(O)C1=Cc2cc(C(=O)c3ccc(O)cc3)ccc2OC1C(F)(F)F (stereo not drawn) [Example 98, 6-(4-Hydroxybenzoyl)-2-(trifluoromethyl)-2H-1-benzopyran-3-carboxylic acid]",5.82,234 to 239.5 °C,4.72,5.70
"O=C(O)C1=Cc2cc(Br)cc(Br)c2OC1C(F)(F)F (stereo not drawn) [Example 33, 6,8-Dibromo-2-trifluoromethyl-2H-1-benzopyran-3-carboxylic acid]",5.09,225 to 226 °C,4.55,> 7.00
"CC(C)(C)c1cc2c(c(C(C)(C)C)c1)OC(C(F)(F)F)C(C(=O)O)=C2 (stereo not drawn) [Example 23, 6,8-bis(1,1-Dimethylethyl)-2-trifluoromethyl-2H-1-benzopyran-3-carboxylic acid]",4.62,171.6 to 175 °C,< 4.00,5.15
"O=C(O)C1=Cc2cc(Cl)c(-c3ccccc3)cc2OC1C(F)(F)F (stereo not drawn) [Example 30, 6-Chloro-7-phenyl-2-trifluoromethyl-2H-1-benzopyran-3-carboxylic acid]",4.80,185.3 to 187.8 °C,5.42,> 7.00
"O=C(O)C1=Cc2cc(C(F)(F)C(F)(F)F)ccc2OC1C(F)(F)F (stereo not drawn) [Example 88, 6-(Pentafluoroethyl)-2-(trifluoromethyl)-2H-1-benzopyran-3-carboxylic acid]",> 7.00,162.3 to 164.7 °C,5.19,> 7.00
"CS(=O)(=O)c1ccc2c(c1)C=C(C(=O)O)C(C(F)(F)F)O2 (stereo not drawn) [Example 56, 6-Methylsulfonyl-2-trifluoromethyl-2H-1-benzopyran-3-carboxylic acid]",4.54,208.3 to 212.4 °C,< 4.00,4.92
"O=C(O)C1=Cc2cc(S(=O)(=O)N3CCOCC3)ccc2OC1C(F)(F)F (stereo not drawn) [Example 53, 6-[(4-Morpholino)sulfonyl]-2-trifluoromethyl-2H-1-benzopyran-3-carboxylic acid]",5.22,215.2 to 219.3 °C,< 4.00,5.10
